Experimental data from PubChem BioAssay (NCI).
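GI50: concentration for 50% inhibition of growth. TGI: total growth inhibition.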

Legend:
Experiment in all cases: NCI-60 cell line screen, 384-well format
[1] = tested on: SK-MEL-28 melanoma
[2] = tested on: MDA-MB-468 breast
[3] = tested on: SNB-75 CNS
[4] = tested on: MDA-MB-435 melanoma
[5] = tested on: M14 melanoma
[6] = tested on: RXF 393 renal
[7] = tested on: A498 renal
[8] = tested on: SK-OV-3 ovarian
[9] = tested on: NCI-H522 lung
[10] = tested on: KM12 colon
[11] = tested on: K-562 leukemia
[12] = tested on: BT-549 breast
[13] = tested on: RPMI-8226 leukemia
[14] = tested on: IGROV1 ovarian
[15] = tested on: OVCAR-3 ovarian
[16] = tested on: COLO 205 colon
[17] = tested on: OVCAR-4 ovarian
[18] = tested on: SK-MEL-5 melanoma
[19] = tested on: MDA-MB-231 breast
[20] = tested on: SNB-19 CNS
[21] = tested on: UACC-62 melanoma
[22] = tested on: SF-268 CNS
[23] = tested on: NCI-H23 lung
[24] = tested on: SF-539 CNS
[25] = tested on: LOX IMVI melanoma
[26] = tested on: DU-145 prostate
[27] = tested on: NCI/ADR-RES ovarian
[28] = tested on: NCI-H226 lung
[29] = tested on: T-47D breast
[30] = tested on: MOLT-4 leukemia
[31] = tested on: SF-295 CNS
[32] = tested on: MCF7 breast
[33] = tested on: CAKI-1 renal
[34] = tested on: UACC-257 melanoma
[35] = tested on: PC-3 prostate
[36] = tested on: SW-620 colon
[37] = tested on: HT29 colon
[38] = tested on: U251 glioblastoma
[39] = tested on: HCC-2998 colon
[40] = tested on: NCI-H460 NSCLC
[41] = tested on: HOP-62 NSCLC
[42] = tested on: HS 578T breast
[43] = tested on: 786-0 renal
[44] = tested on: HCT-116 colon
[45] = tested on: OVCAR-8 ovarian
[46] = tested on: HCT-15 colon
[47] = tested on: TK-10 renal
[48] = tested on: A549 NSCLC
[49] = tested on: SN12C renal
[50] = tested on: MALME-3M melanoma
[51] = tested on: UO-31 renal
[52] = tested on: EKVX NSCLC
[53] = tested on: HL-60(TB) leukemia
[54] = tested on: HOP-92 NSCLC
[55] = tested on: CCRF-CEM leukemia
[56] = tested on: NCI-H322M lung
[57] = tested on: ACHN renal
[58] = tested on: OVCAR-5 ovarian

With NS(=O)(=O)OC[C@H]1C[C@@H](Nc2ccnc3cc(-c4cccc(SC(F)(F)F)c4)nn23)[C@H](O)[C@@H]1O the GI50 [1] was under 10 nM, the TGI [1] was under 10 nM and the GI50 [2] was under 10 nM. For the same compound, the TGI [2] was under 10 nM, the GI50 [3] was 19 nM and the TGI [3] was 34.4 nM. For the same compound, the GI50 [4] was 17.4 nM, the TGI [4] was 32.7 nM and the GI50 [5] was 15.8 nM. It also gave a TGI [5] of 30.7 nM, a GI50 [6] of under 10 nM and a TGI [6] of 18.4 nM. It also gave a GI50 [7] of under 10 nM, a TGI [7] of 21.2 nM and a GI50 [8] of 12.8 nM. It also gave a TGI [8] of 25.9 nM, a GI50 [9] of under 10 nM and a TGI [9] of under 10 nM. It also gave a GI50 [10] of 25.5 nM, a TGI [10] of 59.7 nM and a GI50 [11] of under 10 nM. The TGI [11] was under 10 nM, the GI50 [12] was under 10 nM and the TGI [12] was 16.1 nM. For the same compound, the GI50 [13] was 202 nM, the TGI [13] was 348 nM and the GI50 [14] was 15.1 nM. For the same compound, the TGI [14] was 30.1 nM, the GI50 [15] was under 10 nM and the TGI [15] was under 10 nM. For the same compound, the GI50 [16] was under 10 nM, the TGI [16] was 14.9 nM and the GI50 [17] was 15.9 nM. For the same compound, the TGI [17] was 29.9 nM, the GI50 [18] was under 10 nM and the TGI [18] was under 10 nM. The GI50 [19] was under 10 nM, the TGI [19] was 23.4 nM and the GI50 [20] was under 10 nM. The TGI [20] was 20.7 nM, the GI50 [21] was 17 nM and the TGI [21] was 32.2 nM. The GI50 [22] was under 10 nM, the TGI [22] was under 10 nM and the GI50 [23] was 19.3 nM. For the same compound, the TGI [23] was 51.3 nM, the GI50 [24] was under 10 nM and the TGI [24] was under 10 nM. It also gave a GI50 [25] of under 10 nM, a TGI [25] of under 10 nM and a GI50 [26] of under 10 nM. It also gave a TGI [26] of 44.9 nM, a GI50 [27] of 129 nM and a TGI [27] of 260 nM. The GI50 [28] was under 10 nM, the TGI [28] was under 10 nM and the GI50 [29] was under 10 nM. For the same compound, the TGI [29] was 12.4 nM, the GI50 [30] was 12.9 nM and the TGI [30] was 26 nM. It also gave a GI50 [31] of 48.1 nM, a TGI [31] of 166 nM and a GI50 [32] of 11.5 nM. For the same compound, the TGI [32] was 31.2 nM, the GI50 [33] was 18.9 nM and the TGI [33] was 36 nM. For the same compound, the GI50 [34] was 14.7 nM, the TGI [34] was 28.6 nM and the GI50 [35] was 17.5 nM. The TGI [35] was 32.4 nM, the GI50 [36] was 14.4 nM and the TGI [36] was 27.8 nM. The GI50 [37] was 94.7 nM, the TGI [37] was 222 nM and the GI50 [38] was under 10 nM. It also gave a TGI [38] of under 10 nM, a GI50 [39] of 13.1 nM and a TGI [39] of 27.4 nM. For the same compound, the GI50 [40] was 147 nM, the TGI [40] was 286 nM and the GI50 [41] was under 10 nM. For the same compound, the TGI [41] was 11.4 nM, the GI50 [42] was 14.2 nM and the TGI [42] was 28.4 nM. The GI50 [43] was 18.7 nM, the TGI [43] was 36.1 nM and the GI50 [44] was under 10 nM. For the same compound, the TGI [44] was 11.3 nM, the GI50 [45] was under 10 nM and the TGI [45] was 16.5 nM. For the same compound, the GI50 [46] was 33.2 nM, the TGI [46] was 117 nM and the GI50 [47] was 27.3 nM. It also gave a TGI [47] of 85.3 nM, a GI50 [48] of 59.6 nM and a TGI [48] of 191 nM. For the same compound, the GI50 [49] was 21.4 nM, the TGI [49] was 43.7 nM and the GI50 [50] was under 10 nM. It also gave a TGI [50] of 21.5 nM, a GI50 [51] of 20.5 nM and a TGI [51] of 42.1 nM. For the same compound, the GI50 [52] was 14 nM, the TGI [52] was 28 nM and the GI50 [53] was under 10 nM. For the same compound, the TGI [53] was under 10 nM, the GI50 [54] was 12.2 nM and the TGI [54] was 25.4 nM. It also gave a GI50 [55] of under 10 nM, a TGI [55] of under 10 nM and a GI50 [56] of 11.3 nM. The TGI [56] was 24.2 nM, the GI50 [57] was 59 nM and the TGI [57] was 190 nM. It also gave a GI50 [58] of 12.8 nM and a TGI [58] of 34.2 nM.
